This passage reports IC50 and Ki results from ChEMBL document CHEMBL1909046, “DrugMatrix in vitro pharmacology data”.

Acetylcholinesterase, sequence (P22303 whole entry): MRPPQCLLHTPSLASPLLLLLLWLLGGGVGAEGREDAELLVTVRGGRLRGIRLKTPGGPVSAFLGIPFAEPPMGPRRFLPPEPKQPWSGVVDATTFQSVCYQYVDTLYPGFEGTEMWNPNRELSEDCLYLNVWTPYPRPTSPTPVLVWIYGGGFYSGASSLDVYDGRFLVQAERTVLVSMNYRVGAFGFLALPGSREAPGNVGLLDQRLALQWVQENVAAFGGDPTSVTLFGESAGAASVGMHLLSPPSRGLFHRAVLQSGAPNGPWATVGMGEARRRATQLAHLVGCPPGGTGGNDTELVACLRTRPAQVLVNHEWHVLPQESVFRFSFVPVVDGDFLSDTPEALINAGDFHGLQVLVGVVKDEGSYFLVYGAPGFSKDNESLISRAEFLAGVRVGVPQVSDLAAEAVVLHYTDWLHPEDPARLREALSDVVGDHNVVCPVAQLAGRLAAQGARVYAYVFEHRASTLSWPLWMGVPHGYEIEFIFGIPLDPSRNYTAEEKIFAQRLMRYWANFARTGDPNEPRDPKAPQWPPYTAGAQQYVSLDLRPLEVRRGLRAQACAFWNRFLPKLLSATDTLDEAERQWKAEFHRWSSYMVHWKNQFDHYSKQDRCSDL
Cannabinoid receptor 1, sequence (P21554 whole entry): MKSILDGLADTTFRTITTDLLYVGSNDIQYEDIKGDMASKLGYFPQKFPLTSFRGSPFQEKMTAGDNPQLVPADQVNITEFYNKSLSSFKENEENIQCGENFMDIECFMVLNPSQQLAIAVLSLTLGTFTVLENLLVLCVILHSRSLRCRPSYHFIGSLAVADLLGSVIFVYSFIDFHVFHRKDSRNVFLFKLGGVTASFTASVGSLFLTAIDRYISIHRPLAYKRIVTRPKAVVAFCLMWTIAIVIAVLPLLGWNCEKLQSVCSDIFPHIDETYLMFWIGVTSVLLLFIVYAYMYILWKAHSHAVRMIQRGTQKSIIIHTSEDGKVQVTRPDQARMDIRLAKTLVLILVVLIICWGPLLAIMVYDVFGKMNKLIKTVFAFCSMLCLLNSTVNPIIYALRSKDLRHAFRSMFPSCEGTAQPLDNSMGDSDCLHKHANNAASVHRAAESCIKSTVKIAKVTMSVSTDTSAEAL

The target of one test is Mitogen-activated protein kinase 3 (Homo sapiens, UniProt P27361). Nature of the test: DRUGMATRIX: Protein Serine/Threonine Kinase, ERK1 enzyme inhibition (substrate: Myelin Basic Protein). Further details: species or system Escherichia coli. The conditions noted are these: Not Active = under 50% inhibition at 10 µM.
Mitogen-activated protein kinase 3, sequence (P27361 whole entry): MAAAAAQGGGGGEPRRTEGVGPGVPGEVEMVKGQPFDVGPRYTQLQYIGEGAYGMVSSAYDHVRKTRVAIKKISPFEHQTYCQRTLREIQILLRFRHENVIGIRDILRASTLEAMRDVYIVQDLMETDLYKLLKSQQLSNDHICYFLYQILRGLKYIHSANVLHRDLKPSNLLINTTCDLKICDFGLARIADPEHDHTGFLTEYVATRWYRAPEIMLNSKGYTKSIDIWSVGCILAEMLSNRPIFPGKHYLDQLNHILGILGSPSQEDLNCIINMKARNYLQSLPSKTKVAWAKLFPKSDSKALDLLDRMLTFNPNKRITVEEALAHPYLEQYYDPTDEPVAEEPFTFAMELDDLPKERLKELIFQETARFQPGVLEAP
In the case of `CC(C)(C)NC(=O)[C@@H]1CN(Cc2cccnc2)CCN1C[C@@H](O)C[C@@H](Cc1ccccc1)C(=O)N[C@H]1c2ccccc2C[C@H]1O.O`, the IC50 (usually the concentration needed to halve the response being measured) was “Not Active”.

On to `COc1cc(C(=O)NC2CCCNC2)cc(OC)c1OC` (stereo not given) [TROXIPIDE], for which the IC50 entry is recorded as “Not Active”.

A further test addresses T1, C-X-C chemokine receptor type 1 (Homo sapiens, UniProt P25024).
T1 sequence (P25024 whole entry): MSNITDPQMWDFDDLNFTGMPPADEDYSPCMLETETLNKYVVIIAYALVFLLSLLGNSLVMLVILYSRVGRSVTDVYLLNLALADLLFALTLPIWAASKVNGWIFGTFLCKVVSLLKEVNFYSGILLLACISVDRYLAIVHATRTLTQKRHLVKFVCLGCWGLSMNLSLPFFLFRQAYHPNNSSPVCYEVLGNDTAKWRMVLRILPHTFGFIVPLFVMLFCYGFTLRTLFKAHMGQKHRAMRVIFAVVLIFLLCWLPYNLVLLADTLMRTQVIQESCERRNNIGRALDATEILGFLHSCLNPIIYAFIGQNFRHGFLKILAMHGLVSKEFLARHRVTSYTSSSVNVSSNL
Conditions: not given
As for `CC(C)(C)NC(=O)[C@@H]1CN(Cc2cccnc2)CCN1C[C@@H](O)C[C@@H](Cc1ccccc1)C(=O)N[C@H]1c2ccccc2C[C@H]1O.O`, the IC50 entry is recorded as “Not Active”.

As to `COc1cc(C(=O)NC2CCCNC2)cc(OC)c1OC` (stereo not given) [TROXIPIDE], the IC50 entry was “Not Active”.

System in another test: not listed separately
Description: DRUGMATRIX: Platelet-Derived Growth Factor (PDGF) radioligand binding (ligand: [125I] PDGF). Format: cell-based. The conditions noted are these: nih3t3; Not Active = under 50% inhibition at 10 µM.
Take `CC(C)(C)NC(=O)[C@@H]1CN(Cc2cccnc2)CCN1C[C@@H](O)C[C@@H](Cc1ccccc1)C(=O)N[C@H]1c2ccccc2C[C@H]1O.O`: the 50% inhibitory concentration (IC50) result is on record as “Not Active” and the inhibition constant Ki – broadly, a dissociation constant, usually derived from enzyme kinetics or from competition with a known ligand – is “Not Active”.

Turning to `COc1cc(C(=O)NC2CCCNC2)cc(OC)c1OC` (stereo not given) [TROXIPIDE], the half-inhibitory concentration (IC50) entry is recorded as “Not Active” and the inhibition constant Ki result was “Not Active”.

System in a further test: not listed separately
Nature of the test: DRUGMATRIX: GABAA, Chloride Channel, TBOB radioligand binding (ligand: [3H] TBOB). The conditions noted are these: Not Active = under 50% inhibition at 10 µM. Format: cell membranes, Rattus norvegicus, Wistar, Cerebral cortex, Membrane.
As to `CC(C)(C)NC(=O)[C@@H]1CN(Cc2cccnc2)CCN1C[C@@H](O)C[C@@H](Cc1ccccc1)C(=O)N[C@H]1c2ccccc2C[C@H]1O.O`, the IC50 entry is listed as “Not Active” and the inhibitory constant (Ki) entry is “Not Active”.

`COc1cc(C(=O)NC2CCCNC2)cc(OC)c1OC` (stereo not given) [TROXIPIDE]: the half-inhibitory concentration (IC50) result was “Not Active” and the inhibition constant Ki entry is listed as “Not Active”.

A further test addresses T2, B2 bradykinin receptor (Homo sapiens, UniProt P30411).
T2 sequence (P30411 whole entry): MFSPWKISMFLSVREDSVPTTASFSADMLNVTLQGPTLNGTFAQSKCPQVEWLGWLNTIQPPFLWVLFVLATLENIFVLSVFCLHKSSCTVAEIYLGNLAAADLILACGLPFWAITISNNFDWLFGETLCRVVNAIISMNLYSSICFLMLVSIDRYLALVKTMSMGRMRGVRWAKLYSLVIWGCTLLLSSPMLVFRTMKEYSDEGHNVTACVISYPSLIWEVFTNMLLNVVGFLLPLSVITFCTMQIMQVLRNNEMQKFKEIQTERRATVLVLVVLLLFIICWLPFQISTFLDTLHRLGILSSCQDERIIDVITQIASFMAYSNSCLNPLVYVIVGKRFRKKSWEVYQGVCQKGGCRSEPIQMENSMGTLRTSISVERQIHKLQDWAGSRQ
Format: cell membranes, Membrane. The conditions noted are these: chem-1.
Turning to `CC(C)(C)NC(=O)[C@@H]1CN(Cc2cccnc2)CCN1C[C@@H](O)C[C@@H](Cc1ccccc1)C(=O)N[C@H]1c2ccccc2C[C@H]1O.O`, the IC50 result is “Not Active”.

As for `COc1cc(C(=O)NC2CCCNC2)cc(OC)c1OC` (stereo not given) [TROXIPIDE], the IC50 entry was “Not Active”.

Another test deals with T3, Alpha-2C adrenergic receptor (Homo sapiens, UniProt P18825).
T3 sequence (P18825 whole entry): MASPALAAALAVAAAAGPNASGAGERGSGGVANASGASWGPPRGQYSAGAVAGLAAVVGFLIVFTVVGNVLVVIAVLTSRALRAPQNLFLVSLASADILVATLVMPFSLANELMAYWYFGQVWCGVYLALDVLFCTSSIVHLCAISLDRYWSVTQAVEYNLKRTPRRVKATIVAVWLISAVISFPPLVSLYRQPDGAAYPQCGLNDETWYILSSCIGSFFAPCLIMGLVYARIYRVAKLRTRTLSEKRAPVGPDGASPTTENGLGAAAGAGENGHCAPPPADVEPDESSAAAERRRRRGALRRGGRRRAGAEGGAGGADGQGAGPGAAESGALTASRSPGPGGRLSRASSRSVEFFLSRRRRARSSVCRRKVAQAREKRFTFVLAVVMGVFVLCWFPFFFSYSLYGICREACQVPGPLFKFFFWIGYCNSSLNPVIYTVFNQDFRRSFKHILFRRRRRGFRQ
Nature of the test: DRUGMATRIX: Adrenergic Alpha-2C radioligand binding (ligand: [3H] MK-912). The conditions noted are these: sf9. Format: cell membranes, Sf9, Membrane.
For `CC(C)(C)NC(=O)[C@@H]1CN(Cc2cccnc2)CCN1C[C@@H](O)C[C@@H](Cc1ccccc1)C(=O)N[C@H]1c2ccccc2C[C@H]1O.O`, the concentration for half-maximal inhibition (IC50) entry is recorded as “Not Active”.

On to `COc1cc(C(=O)NC2CCCNC2)cc(OC)c1OC` (stereo not given) [TROXIPIDE], for which the IC50 result is “Not Active”.

The next test concerns the target Cannabinoid receptor 1 (Homo sapiens, UniProt P21554). Format: cell membranes, Membrane. The conditions noted are these: chem-1. Further: in other assays of this panel Not Active means under 50% inhibition at 10 µM.
On to `CC(C)(C)NC(=O)[C@@H]1CN(Cc2cccnc2)CCN1C[C@@H](O)C[C@@H](Cc1ccccc1)C(=O)N[C@H]1c2ccccc2C[C@H]1O.O`, for which the IC50 result is listed as “Not Active”.

As for `COc1cc(C(=O)NC2CCCNC2)cc(OC)c1OC` (stereo not given) [TROXIPIDE], the half-inhibitory concentration (IC50) result is listed as “Not Active”.

The target of the next test is cGMP-specific 3',5'-cyclic phosphodiesterase (Homo sapiens, UniProt O76074). Nature of the test: DRUGMATRIX: Phosphodiesterase PDE5 enzyme inhibition (substrate: [3H]cGMP + cGMP). Format: tissue-based, Platelet. The conditions noted are these: platelet; Not Active = under 50% inhibition at 10 µM.
Consider `CC(C)(C)NC(=O)[C@@H]1CN(Cc2cccnc2)CCN1C[C@@H](O)C[C@@H](Cc1ccccc1)C(=O)N[C@H]1c2ccccc2C[C@H]1O.O`, for which the IC50 entry is reported as “Not Active”.

Regarding `COc1cc(C(=O)NC2CCCNC2)cc(OC)c1OC` (stereo not given) [TROXIPIDE], the half-maximal inhibitory concentration (IC50) entry is listed as “Not Active”.

The target in the next test is Nitric oxide synthase 1 (Rattus norvegicus, UniProt P29476). Format: tissue-based, Cerebellum. Further: in other assays of this panel Not Active means under 50% inhibition at 10 µM.
Nitric oxide synthase 1, sequence (P29476 whole entry): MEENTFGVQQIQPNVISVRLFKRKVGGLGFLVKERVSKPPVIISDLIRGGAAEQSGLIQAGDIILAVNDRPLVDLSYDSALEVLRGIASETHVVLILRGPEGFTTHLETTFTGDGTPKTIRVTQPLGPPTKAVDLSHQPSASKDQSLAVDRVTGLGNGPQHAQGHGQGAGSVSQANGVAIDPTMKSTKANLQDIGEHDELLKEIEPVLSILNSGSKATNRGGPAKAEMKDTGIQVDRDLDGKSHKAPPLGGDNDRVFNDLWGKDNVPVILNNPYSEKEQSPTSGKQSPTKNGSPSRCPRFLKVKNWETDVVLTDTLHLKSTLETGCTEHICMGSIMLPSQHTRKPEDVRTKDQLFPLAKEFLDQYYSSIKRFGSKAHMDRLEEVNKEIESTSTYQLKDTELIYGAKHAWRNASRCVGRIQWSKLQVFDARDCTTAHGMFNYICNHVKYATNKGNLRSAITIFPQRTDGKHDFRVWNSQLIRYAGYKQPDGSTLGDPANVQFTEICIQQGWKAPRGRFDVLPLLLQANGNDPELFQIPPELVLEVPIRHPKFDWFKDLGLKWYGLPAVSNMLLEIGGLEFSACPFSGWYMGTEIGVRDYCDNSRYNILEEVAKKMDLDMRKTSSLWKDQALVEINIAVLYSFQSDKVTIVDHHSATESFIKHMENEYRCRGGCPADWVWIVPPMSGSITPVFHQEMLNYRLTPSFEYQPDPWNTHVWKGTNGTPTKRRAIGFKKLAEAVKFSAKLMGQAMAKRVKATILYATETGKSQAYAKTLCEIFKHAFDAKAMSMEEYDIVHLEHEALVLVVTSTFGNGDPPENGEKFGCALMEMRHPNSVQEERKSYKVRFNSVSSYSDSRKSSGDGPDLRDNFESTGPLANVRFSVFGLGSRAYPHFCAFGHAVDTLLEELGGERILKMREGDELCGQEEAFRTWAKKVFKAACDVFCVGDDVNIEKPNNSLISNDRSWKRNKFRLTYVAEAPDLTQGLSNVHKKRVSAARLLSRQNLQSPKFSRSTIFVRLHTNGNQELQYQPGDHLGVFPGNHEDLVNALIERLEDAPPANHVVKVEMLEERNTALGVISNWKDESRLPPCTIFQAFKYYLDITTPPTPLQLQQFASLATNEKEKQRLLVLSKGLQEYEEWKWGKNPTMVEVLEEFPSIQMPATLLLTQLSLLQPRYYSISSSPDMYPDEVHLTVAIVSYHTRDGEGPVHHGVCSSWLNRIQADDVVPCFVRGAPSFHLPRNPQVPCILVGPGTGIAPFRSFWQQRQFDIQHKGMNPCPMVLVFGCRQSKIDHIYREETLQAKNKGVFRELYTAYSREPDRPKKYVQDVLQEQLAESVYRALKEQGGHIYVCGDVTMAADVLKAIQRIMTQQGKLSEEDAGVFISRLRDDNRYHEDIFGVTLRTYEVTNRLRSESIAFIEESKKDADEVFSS
Conditions: not given
In the case of `CC(C)(C)NC(=O)[C@@H]1CN(Cc2cccnc2)CCN1C[C@@H](O)C[C@@H](Cc1ccccc1)C(=O)N[C@H]1c2ccccc2C[C@H]1O.O`, the IC50 result was “Not Active”.

For the compound `COc1cc(C(=O)NC2CCCNC2)cc(OC)c1OC` (stereo not given) [TROXIPIDE], the IC50 entry is “Not Active”.

System in a further test: not listed separately
Description: DRUGMATRIX: Potassium Channel [KATP] radioligand binding (ligand: [3H] Glyburide). Format: cell membranes, Membrane. The conditions noted are these: hit-t15; Not Active = under 50% inhibition at 10 µM.
As to `CC(C)(C)NC(=O)[C@@H]1CN(Cc2cccnc2)CCN1C[C@@H](O)C[C@@H](Cc1ccccc1)C(=O)N[C@H]1c2ccccc2C[C@H]1O.O`, the IC50 entry is reported as “Not Active” and the Ki result was “Not Active”.

With `COc1cc(C(=O)NC2CCCNC2)cc(OC)c1OC` (stereo not given) [TROXIPIDE], the IC50 entry is “Not Active” and the inhibition constant (Ki) result is on record as “Not Active”.

A further test has as its target Acetylcholinesterase (Homo sapiens, UniProt P22303). Nature of the test: DRUGMATRIX: Acetylcholinesterase enzyme inhibition (substrate: acetylthiocholine). Format: cell-based, HEK293. The conditions noted are these: hek293; Not Active = under 50% inhibition at 10 µM.
As for `CC(C)(C)NC(=O)[C@@H]1CN(Cc2cccnc2)CCN1C[C@@H](O)C[C@@H](Cc1ccccc1)C(=O)N[C@H]1c2ccccc2C[C@H]1O.O`, the half-inhibitory concentration (IC50) entry was “Not Active”.

Consider `COc1cc(C(=O)NC2CCCNC2)cc(OC)c1OC` (stereo not given) [TROXIPIDE], for which the IC50 entry is listed as “Not Active”.

The target of the next test is T4, Substance-K receptor (Homo sapiens, UniProt P21452). Further: in other assays of this panel Not Active means under 50% inhibition at 10 µM.
T4 sequence (P21452 whole entry): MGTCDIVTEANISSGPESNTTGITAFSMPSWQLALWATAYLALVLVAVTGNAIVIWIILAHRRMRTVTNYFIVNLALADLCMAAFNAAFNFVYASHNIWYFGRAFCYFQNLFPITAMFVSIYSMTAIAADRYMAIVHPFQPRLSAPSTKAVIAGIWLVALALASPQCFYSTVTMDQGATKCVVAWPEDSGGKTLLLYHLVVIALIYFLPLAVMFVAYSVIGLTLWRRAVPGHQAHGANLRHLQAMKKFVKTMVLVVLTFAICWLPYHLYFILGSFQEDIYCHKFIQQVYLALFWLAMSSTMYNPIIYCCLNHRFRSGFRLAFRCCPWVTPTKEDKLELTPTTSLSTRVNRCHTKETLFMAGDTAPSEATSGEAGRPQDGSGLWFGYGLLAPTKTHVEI
Format: cell membranes, CHO, Membrane. The conditions noted are these: cho.
For the compound `COc1cc(C(=O)NC2CCCNC2)cc(OC)c1OC` (stereo not given) [TROXIPIDE], the IC50 result is “Not Active”.

The same test, now with this note: read-out: IC50.
`CC(C)(C)NC(=O)[C@@H]1CN(Cc2cccnc2)CCN1C[C@@H](O)C[C@@H](Cc1ccccc1)C(=O)N[C@H]1c2ccccc2C[C@H]1O.O`: the IC50 stood at 5.1 µM.

Still in this test, the particulars now being: read-out: Ki.
Turning to `CC(C)(C)NC(=O)[C@@H]1CN(Cc2cccnc2)CCN1C[C@@H](O)C[C@@H](Cc1ccccc1)C(=O)N[C@H]1c2ccccc2C[C@H]1O.O`, the inhibitory constant (Ki) was 1.7 µM.

The next test deals with Adenosine receptor A2a (Homo sapiens, UniProt P29274). Nature of the test: DRUGMATRIX: Adenosine A2A radioligand binding (ligand: […]). The conditions noted are these: hek293; Not Active = under 50% inhibition at 10 µM. Format: cell membranes, HEK293, Membrane.
Adenosine receptor A2a, sequence (P29274 whole entry): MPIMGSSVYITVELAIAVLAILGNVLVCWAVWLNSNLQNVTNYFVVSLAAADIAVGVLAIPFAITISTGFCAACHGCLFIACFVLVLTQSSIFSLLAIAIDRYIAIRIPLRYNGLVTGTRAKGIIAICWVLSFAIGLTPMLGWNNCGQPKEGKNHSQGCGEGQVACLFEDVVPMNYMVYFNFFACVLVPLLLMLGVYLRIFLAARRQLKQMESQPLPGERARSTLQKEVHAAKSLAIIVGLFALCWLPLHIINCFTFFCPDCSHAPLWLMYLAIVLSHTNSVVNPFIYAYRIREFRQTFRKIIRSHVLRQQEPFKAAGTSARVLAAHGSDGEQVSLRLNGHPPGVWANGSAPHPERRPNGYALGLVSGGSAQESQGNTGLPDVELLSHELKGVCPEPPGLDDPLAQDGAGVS
For the compound `CC(C)(C)NC(=O)[C@@H]1CN(Cc2cccnc2)CCN1C[C@@H](O)C[C@@H](Cc1ccccc1)C(=O)N[C@H]1c2ccccc2C[C@H]1O.O`, the IC50 entry is given as “Not Active”.

Turning to `COc1cc(C(=O)NC2CCCNC2)cc(OC)c1OC` (stereo not given) [TROXIPIDE], the IC50 entry is listed as “Not Active”.

The next test concerns the target Protein phosphatase 3 catalytic subunit alpha (Homo sapiens, UniProt Q08209). Further details: species or system Escherichia coli.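 Further: inhibition of calcineurin (PP2B) enzyme activity, measured with DiFMUP as the substrate; in other assays of this panel Not Active means under 50% inhibition at 10 µM.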
Conditions: not given
For the compound `CC(C)(C)NC(=O)[C@@H]1CN(Cc2cccnc2)CCN1C[C@@H](O)C[C@@H](Cc1ccccc1)C(=O)N[C@H]1c2ccccc2C[C@H]1O.O`, the half-inhibitory concentration (IC50) entry is reported as “Not Active”.

For `COc1cc(C(=O)NC2CCCNC2)cc(OC)c1OC` (stereo not given) [TROXIPIDE], the IC50 result is recorded as “Not Active”.
